Data on two molecules can be found in ChEMBL document CHEMBL1137647, “vanD and vanG-like gene clusters in a Ruminococcus species isolated from human bowel flora” (2007).

Bounds are passed on as bounds.

The test system of this assay is Ruminococcus sp. Nature of the assay: Antimicrobial activity against Ruminococcus sp. CCRI-16110 containing vanD-like gene by agar dilution method. Type of assay: functional. In general terms: In agar dilution the substance is mixed into plates at graded concentrations.

On to `Cc1ncc([N+](=O)[O-])n1CCO` [METRONIDAZOLE], for which the MIC (commonly the lowest concentration found to suppress growth) is below 0.125 mg/L.

The molecule `CN[C@H](CC(C)C)C(=O)N[C@H]1C(=O)N[C@@H](CC(N)=O)C(=O)N[C@H]2C(=O)N[C@H]3C(=O)N[C@H](C(=O)N[C@H](C(=O)O)c4cc(O)cc(O)c4-c4cc3ccc4O)[C@H](O)c3ccc(c(Cl)c3)Oc3cc2cc(c3O[C@@H]2O[C@H](CO)[C@@H](O)[C@H](O)[C@H]2O[C@H]2C[C@](C)(N)[C@H](O)[C@H](C)O2)Oc2ccc(cc2Cl)[C@H]1O` [VANCOMYCIN] came in with an MIC above 256 mg/L.
